Holding throughout (assay): inhibition of tumour cell growth, NCI panel, 48 h
In test [1] the test system is TK-10 renal.
Test [2] deals with NCI/ADR-RES ovarian.
In test [3] the test system is MOLT-4 leukemia.
The test system of test [4] is A549 NSCLC.
The subject of test [5] is HL-60(TB) leukemia.
For test [6], the system named is SF-295 CNS.
For test [7], the system named is SF-268 CNS.
The subject of test [8] is MALME-3M melanoma.
The test system of test [9] is SN12C renal.
For test [10], the system named is OVCAR-8 ovarian.
Test [11] relates to ACHN renal.

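Growth conditions: 96-well plates. Treatment: test compound, 48 hours, 5 concentrations. Analysis: linear interpolation between bracketing concentrations; unreached endpoints set to highest concentration. The concentration for full growth arrest is given as TGI.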 Bounds are passed on as bounds.

As for `Nn1c(CCCCCCCCc2nnc(-c3c(O)ccc4ccccc34)n2N)nnc1-c1c(O)ccc2ccccc12`, the TGI in test [1], in test [2], in [3], in test [4], in [5] and in test [6] was > 100 µM in each case. For the same molecule, the TGI in test [7], in test [8], in [9], in test [10] and in [11] was > 100 µM throughout.
For the molecule `CO/C=C(/C(=O)OC)[C@@H]1C[C@@H]1c1ccc2ccccc2c1`, the TGI in [1] is > 100 µM; in test [2], 65.3 µM; in [3], 65.4 µM; in test [4], 57.4 µM; in test [5], 49.3 µM; in test [6], > 100 µM. The TGI in test [7] was 99.2 µM; in test [8], 50.6 µM; in test [9] it was > 100 µM; in test [10], > 100 µM; in test [11] it was 78.7 µM.
Regarding `CCn1c(SCC(=O)N/N=C2\SCC(=O)N2c2ccc(C)cc2)nc2ccccc2c1=O`, the TGI in test [1] was 31 µM; in test [2] it was 49.7 µM; in [3] it was > 100 µM; in [4] it was 43.3 µM; in [5] it was > 100 µM; in [6], 36.2 µM. The TGI in test [7] came out at 47.7 µM; in [8] it was 45.6 µM; in test [9] it was 50.4 µM; in [10], 35.5 µM; in test [11], 34.2 µM.
On to `C#CC1(O)CCC2[C@@H]3CCc4cc(Oc5nc(F)nc(-c6c(C)c(C(=O)OCC)n7ccccc67)n5)ccc4C3CC[C@@]21C` (stereo partly specified), for which the TGI in test [1], in [2], in test [3], in [4], in [5] and in test [6] was > 100 µM in each case. Moreover, the TGI in [7], in test [8], in test [9], in test [10] and in test [11] was > 100 µM in each case.
As for `Cc1ncn(-c2ccccc2O)c1C`, the TGI in test [1], in test [2], in test [3], in test [4], in [5] and in test [6] was > 100 µM each time. Besides, the TGI in test [7], in test [8], in test [9], in test [10] and in test [11] was > 100 µM each time.
For `COC(=O)Nc1nc2ccc(NS(=O)(=O)c3cccs3)cc2[nH]1`, the TGI in test [1] was 68 µM; in [2], 85.3 µM; in test [3], 77.4 µM; in test [4], > 100 µM; in [5] it was 55.5 µM; in test [6], 70.9 µM. The TGI in [7] is > 100 µM; in test [8], 54.7 µM; in test [9] it was > 100 µM; in [10] it was > 100 µM; in [11], > 100 µM.
Regarding `CC(C)(C)c1cc(/C=C(\C#N)C2=NCCO2)cc(C(C)(C)C)c1O`, the TGI in test [1] is 16 µM; in test [2], 10.7 µM; in test [3], 21.1 µM; in test [4], 19.7 µM; in test [5], 5.87 µM; in test [6], 9.8 µM. For the same molecule, the TGI is 16.1 µM in [7]; 19.6 µM in test [8]; 10.1 µM in test [9]; 19.6 µM in test [10]; 14.5 µM in test [11].
On to `OC1NC2Nc3ccccc3NC2NC1O` (stereo unspecified), for which the TGI in test [1], in [2], in [3], in test [4], in test [5] and in test [6] was > 100 µM throughout. The TGI in [7], in test [8], in [9], in test [10] and in test [11] was > 100 µM each time.
For the molecule `O=C(O)c1nc2cc(Cl)ccc2[nH]c1=O`, the TGI in test [1], in [2], in test [3], in test [4], in test [5] and in [6] was > 100 µM in each case. Also, the TGI in [7], in [8], in test [9], in test [10] and in test [11] was > 100 µM in each case.
`CC(C)(C)OC(=O)NCC(CNC(=O)OC(C)(C)C)C(N)=O`: the TGI in [1], in test [2], in test [3], in test [4], in [5] and in test [6] was > 100 µM in each case. Besides, the TGI in test [7], in [8], in [9], in test [10] and in test [11] was > 100 µM each time.
On to `CC(NC1=NCCO1)c1ccccc1Cl` (stereo unspecified), for which the TGI in test [1], in test [2], in test [3], in [4], in test [5] and in [6] was > 100 µM throughout. Moreover, the TGI in test [7], in test [8], in test [9], in test [10] and in test [11] was > 100 µM throughout.
